Data: US20120101261A1, “USE OF MULTI-KINASE INHIBITORS IN THE TREATMENT OF VASCULAR HYPERPERMEABILITY” (Fondazione IRCCS Istituto Nazionale Dei Tumori, priority 2009, published 2012)

Key:
[1] = tested on: vascular permeability in mouse tail; assay: Miles vascular permeability assay (Evans blue) in mice with surgically induced tail lymphedema; type: in vivo
Experimental: A Miles vascular permeability assay using intrasplenic injection of the blue dye Evans blue was perfomed in untreated and sorafenib-treated mice bearing a surgical-induced tail lymphedema.
Six- to eight-wk-old female C57BL/6 mice with body weight of 20 to 25 g, were used in this experiment. Tail lymphedema was generated by a circumferential incision through the dermis close to the tail base, as described above. […] On day 16, mice received the last dose of sorafenib and 2 hrs later were injected through the spleen with 0.1 ml of 1% Evan's blue in PBS. After 2 h, the mice were exsanguinated under anesthesia, and were perfused with heparin in PBS until lungs and livers were blanched. The distal portion of the tail was then removed and placed in formamide at 37° C. overnight to extract Evan's blue dye. […]

acquired arm lymphedema = assay: Pilot clinical study in breast cancer patients with acquired arm lymphedema; type: in vivo, human; conditions: oral 200 mg daily, up to 8 weeks, ten patients
Excerpt: To further evaluate in a clinical setting the anti-lymphedema activity of multi-kinase inhibitor sorafenib, the Applicants performed a pilot study on a compassionate need basis to evaluate the toxicity and the anti-lymphedema effects of multi-kinase inhibitor sorafenib in consenting breast cancer patients with acquired arm lymphedema occurring following surgical dissection of, and/or radiotherapy on axillary lymphnodes. No other treatment options of proven efficacy was available for these patients.
Patients were administered with oral sorafenib at a dose of 200 mg daily.
Therapy was given for a maximum of 8 weeks or until lymphedema progression or appearance of clinical significant toxicity probably related to multi-kinase inhibitor sorafenib.
Within a two-month period of time ten breast cancer patients with acquired lymphedema of the arm were treated with multi-kinase inhibitor sorafenib.
At the end of treatment, the efficacy of multi-kinase inhibitor sorafenib was evaluated as percentage reduction of total arm circumference as compared with pre-treatment values. The median reduction of total arm circumference was 60% (range, 30 to 100). Lymphedema reduction was associated with a 5-10% reduction of body weight.

[2] = tested on: severe bilateral leg lymphedema; assay: Observation of leg lymphedema in a Hodgkin lymphoma patient in a phase II clinical trial; type: in vivo, human; conditions: one Hodgkin lymphoma patient, 800 mg/die, lymphedema from post-radiotherapy compressive lymphatic obstruction
Excerpt: In this patient, lymphedema was due a compressive lymphatic obstruction related to post-radiotherapy sequelae.

[3] = tested on: tail lymphedema in C57BL/6 mice; assay: Mouse tail model of lymphedema; type: in vivo; conditions: 60 mg/kg/die days 5 to 9 and 12 to 16
Experimental: Six- to eight-wk-old female C57BL/6 mice with body weight of 20 to 25 g, were purchased from Charles River (Milano, Italy, EU). Mice were housed under standard laboratory conditions according to the Applicant's institutional guidelines. Animal experiments were performed according to the Italian laws (Law Decree 116/92 and following additions), which enforce the EU […] Directive, and were approved by the institutional Ethical Committee for Animal Experimentation.
To create lymphedema, a circumferential incision was made through the dermis close to the tail base to sever the dermal lymphatic vessels. The edges of this incision were then pushed apart, thereby severing the deeper draining lymphatics, preventing superficial bleeding, and creating a 2-3 mm gap to delay wound closure.
Sorafenib dosing used in mice experiments is roughly equivalent to a 300 mg daily dosing in humans.
Mice were than randomly assigned to receive two cycles of sorafenib (60 mg/kg/die) from days 5 to 9 and 12 to 16 or control vehicle.

CNC(=O)c1cc(Oc2ccc(NC(=O)Nc3ccc(Cl)c(C(F)(F)F)c3)cc2)ccn1 [sorafenib, Sorafenib]
mean (±SEM) OD620 of Evans blue extracted from the tail ([1]; 60 mg/kg, 384 h): 0.09±0.009
reduction of vascular permeability vs untreated mice (extravasated Evans blue) ([1]; day 16, 60 mg/kg/die days 5 to 9 and 12 to 16): 2 fold
median reduction of total arm circumference vs pre-treatment (acquired arm lymphedema; end of treatment): 60%
reduction of body weight associated with lymphedema reduction (acquired arm lymphedema): 5-10%
tolerability (acquired arm lymphedema; no dose reduction or discontinuation due to toxicity): well tolerated
regression of severe bilateral leg lymphedema [2]: complete regression
mean (±SEM) tail diameter at lymphedema peak ([3]; day 7 after incision, control peak 63±3 mm on day 15): 58±4 mm
resolution of tail lymphedema ([3]; day 20): complete resolution of lymphedema
mean (±SEM) tail diameter on day 20 ([3]; day 20 after incision, control 58±3, P≦0.0003, baseline 36±1): 36±1 mm
